In US10760052B2, “Method of inhibiting tau phosphorylation” (priority 2012, dated 2020):

How the values were obtained:
[1] = biological target: T1, FLNA-α7nAChR/TLR4 and Aβ42-α7nAChR complexes (Homo sapiens, UniProt P21333); assay: FLNA-α7nAChR/TLR4 and Aβ42-α7nAChR associations in AD and Aβ42-treated control lymphocytes; assay type: cell-based; conditions: 1 nM, 30 minutes
T1 construct: endogenous in cells; host or cells: lymphocytes of AD patients and control subjects
Description: Because lymphocytes contain α7nAChR and TLR4, whether the associations of these receptors with FLNA are increased in the lymphocytes of AD patients and whether Compound C0105 treatment ex vivo could disrupt these associations were assessed. Also assayed was the effect of Compound C0105 on Aβ42-α7nAChR complexes in AD lymphocytes and Aβ42-treated lymphocytes from age-matched control subjects.

IL-6, TNF-α and IL-1β = assay: ICV Aβ42 infusion mouse model: cytokine levels (fluorescence ELISA); assay type: in vivo
Description: Following centrifugation, the resultant lysate was then dilute with 500 μl (total volume 600 μl) and used as the source of cytokines.
Plates were washed 3 times with ice-cold 50 mM Tris HCl (pH 7.4) and incubated at 30° C. with 100 μl of lysate derived from the above mentioned tissues for 1 hour.
Plates were washed 3 times with ice-cold 50 mM Tris HCl (pH 7.4) and incubated at 30° C. with 0.5 μg/well un-conjugated rabbit anti-TNF-α, anti-IL-6 and anti-IL-1β for 1 hour. After two washes with 50 mM Tris HCl (pH 7.4), each well was incubated in 0.5 μg/well FITC-conjugated anti-rabbit IgG (human and mouse absorbed) for 1 hour at 30° C. Plates were washed twice with 200 μl ice-cold Tris HCl, pH 7.4 and the residual FITC signals were determined by multimode plate reader, DTX880 (Beckman). Each lysate was surveyed twice.

[2] = system: tau protein phosphorylated at S202, T231 and T181; assay: Aβ42-induced tau phosphorylation in rat frontal cortical synaptosomes; assay type: cell-based
Description: FIG. 4 in four panels as FIGS. 4A-4D, illustrates that FLNA-binding compounds reduce tau phosphorylation at all three phosphorylation sites. […] The three phosphoepitopes of tau were detected in immunoprecipitates using specific antibodies. […] Immunoprecipitates were determined by Western blotting (FIGS. 4A-4C) and quantified by densitometry (FIG. 4D).
(§1) FIG. 42, also in two panels, FIGS. 42A and 42B, illustrates that FLNA-binding compounds reduce tau phosphorylation at all three phosphorylation sites using the compounds and concentrations of FIG. 41 using immunoprecipitation and Western blotting. […] The three phosphoepitopes of tau were detected in immunoprecipitates using specific antibodies.
as §1, with “44,” for “42,”, “FIG. 44A” for “FIGS. 42A”, “FIG. 44B,” for “42B,”, “43” for “41”, “antibodies. Aβ42 strongly promotes tau phosphorylation at all three sites.” for “antibodies.”
as §1, with “46,” for “42,”, “FIG. 46A” for “FIGS. 42A”, “FIG. 46B,” for “42B,”, “45” for “41”, “antibodies. Aβ42 strongly promotes tau phosphorylation at all three sites.” for “antibodies.”
The three primary phosphorylation sites on tau protein were examined for their phosphorylation levels compared to total tau protein content. Tau, phosphorylated at these three sites, is a constituent of NFTs. Consistent with effects on FLNA-α7nAChR association, and ERK2 activation, all of the FLNA-binding compounds assayed, with 10 minute pre-incubation, decreased Aβ42-induced phosphorylation of tau at all three sites (FIG. 4).

NFT and Aβ42 aggregates = assay: ICV Aβ42 infusion mouse model: immunohistochemistry of NFT and Aβ42 aggregates; assay type: in vivo; conditions: 10 mg/kg twice daily
Description: One section was immunostained with anti-NFT or -PHF.
Brain tissues were fixed at 4° C. in 0.15 M phosphate-buffered 10% formalin, pH 7.4 for 2 weeks, paraffin embedded, serially sectioned at 5 μm, and processed for brightfield immunohistochemistry as described. The […] but not Aβ42-1. Specimens were examined using a Nikon FXA microscope with a Princeton Instruments CCD camera and recorded digitally.
The correlations between the amount of NFT/PHF immunoreactivity and Aβ42-positive material accumulated within mature neurons were also determined.

FLNA = biological target: T2, FLNA (Homo sapiens, UniProt P21333); assay: [3H]NLX competition binding to FLNA in A7 cell membranes; conditions: 0.5 nM [3H]NLX, N=4, read-out: IC50-L, inhibition of [3H]NLX binding
T2 construct: validate the use of that 5-mer peptide as a surrogate for the complete molecule in the assays carried out herein; host or cells: A7 cells

[3] = system: tau phosphorylated at S202, T231 and T181; assay: Postmortem human frontal cortical synaptosomes: Aβ42-induced tau phosphorylation with VAKGL decoy; assay type: cell-based; conditions: postmortem control frontocortical tissue
Description: FIG. 34 VAKGL (SEQ ID NO: 1) pentapeptide (10 μM) blocks Compound C0105's prevention of tau phosphorylation. Again using postmortem frontal cortical synaptosomes, the VAKGL pentapeptide blocks C0105's reduction in tau phosphorylation at all three phosphorylation sites found in neurofibrillary tangles. Western blots (FIG. 34A), in which numerals outside of and to the left of the blots are as discussed before, were analyzed by densitometric quantitation (FIG. 34B). Data are means±SEM. n=3. *p<0.01 vs. the respective basal level; # p<0.01 vs. Aβ42-exposed tissues.
In postmortem control frontocortical tissue, the FLNA pentapeptide binding site of Compound C0105 (VAKGL of SEQ ID NO: 1) was used as a decoy to block the attenuation of FLNA association with α7nAChR and TLR4 by Compound C0105 (FIG. 33).

α7nAChR = conditions: mouse, in vivo
TLR4-FLNA complex = biological target: T3, TLR4-FLNA complex (Homo sapiens, UniProt P21333); assay: Postmortem human frontal cortex: TLR4-FLNA association; assay type: cell-based; conditions: AD and Aβ42-treated control tissue; 0.1 or 1 nM
T3 construct: from tissue; host or cells: postmortem frontal cortex slices / synaptosomes (AD and control subjects)
T3 sequence (P21333 2-2647, one chain of several): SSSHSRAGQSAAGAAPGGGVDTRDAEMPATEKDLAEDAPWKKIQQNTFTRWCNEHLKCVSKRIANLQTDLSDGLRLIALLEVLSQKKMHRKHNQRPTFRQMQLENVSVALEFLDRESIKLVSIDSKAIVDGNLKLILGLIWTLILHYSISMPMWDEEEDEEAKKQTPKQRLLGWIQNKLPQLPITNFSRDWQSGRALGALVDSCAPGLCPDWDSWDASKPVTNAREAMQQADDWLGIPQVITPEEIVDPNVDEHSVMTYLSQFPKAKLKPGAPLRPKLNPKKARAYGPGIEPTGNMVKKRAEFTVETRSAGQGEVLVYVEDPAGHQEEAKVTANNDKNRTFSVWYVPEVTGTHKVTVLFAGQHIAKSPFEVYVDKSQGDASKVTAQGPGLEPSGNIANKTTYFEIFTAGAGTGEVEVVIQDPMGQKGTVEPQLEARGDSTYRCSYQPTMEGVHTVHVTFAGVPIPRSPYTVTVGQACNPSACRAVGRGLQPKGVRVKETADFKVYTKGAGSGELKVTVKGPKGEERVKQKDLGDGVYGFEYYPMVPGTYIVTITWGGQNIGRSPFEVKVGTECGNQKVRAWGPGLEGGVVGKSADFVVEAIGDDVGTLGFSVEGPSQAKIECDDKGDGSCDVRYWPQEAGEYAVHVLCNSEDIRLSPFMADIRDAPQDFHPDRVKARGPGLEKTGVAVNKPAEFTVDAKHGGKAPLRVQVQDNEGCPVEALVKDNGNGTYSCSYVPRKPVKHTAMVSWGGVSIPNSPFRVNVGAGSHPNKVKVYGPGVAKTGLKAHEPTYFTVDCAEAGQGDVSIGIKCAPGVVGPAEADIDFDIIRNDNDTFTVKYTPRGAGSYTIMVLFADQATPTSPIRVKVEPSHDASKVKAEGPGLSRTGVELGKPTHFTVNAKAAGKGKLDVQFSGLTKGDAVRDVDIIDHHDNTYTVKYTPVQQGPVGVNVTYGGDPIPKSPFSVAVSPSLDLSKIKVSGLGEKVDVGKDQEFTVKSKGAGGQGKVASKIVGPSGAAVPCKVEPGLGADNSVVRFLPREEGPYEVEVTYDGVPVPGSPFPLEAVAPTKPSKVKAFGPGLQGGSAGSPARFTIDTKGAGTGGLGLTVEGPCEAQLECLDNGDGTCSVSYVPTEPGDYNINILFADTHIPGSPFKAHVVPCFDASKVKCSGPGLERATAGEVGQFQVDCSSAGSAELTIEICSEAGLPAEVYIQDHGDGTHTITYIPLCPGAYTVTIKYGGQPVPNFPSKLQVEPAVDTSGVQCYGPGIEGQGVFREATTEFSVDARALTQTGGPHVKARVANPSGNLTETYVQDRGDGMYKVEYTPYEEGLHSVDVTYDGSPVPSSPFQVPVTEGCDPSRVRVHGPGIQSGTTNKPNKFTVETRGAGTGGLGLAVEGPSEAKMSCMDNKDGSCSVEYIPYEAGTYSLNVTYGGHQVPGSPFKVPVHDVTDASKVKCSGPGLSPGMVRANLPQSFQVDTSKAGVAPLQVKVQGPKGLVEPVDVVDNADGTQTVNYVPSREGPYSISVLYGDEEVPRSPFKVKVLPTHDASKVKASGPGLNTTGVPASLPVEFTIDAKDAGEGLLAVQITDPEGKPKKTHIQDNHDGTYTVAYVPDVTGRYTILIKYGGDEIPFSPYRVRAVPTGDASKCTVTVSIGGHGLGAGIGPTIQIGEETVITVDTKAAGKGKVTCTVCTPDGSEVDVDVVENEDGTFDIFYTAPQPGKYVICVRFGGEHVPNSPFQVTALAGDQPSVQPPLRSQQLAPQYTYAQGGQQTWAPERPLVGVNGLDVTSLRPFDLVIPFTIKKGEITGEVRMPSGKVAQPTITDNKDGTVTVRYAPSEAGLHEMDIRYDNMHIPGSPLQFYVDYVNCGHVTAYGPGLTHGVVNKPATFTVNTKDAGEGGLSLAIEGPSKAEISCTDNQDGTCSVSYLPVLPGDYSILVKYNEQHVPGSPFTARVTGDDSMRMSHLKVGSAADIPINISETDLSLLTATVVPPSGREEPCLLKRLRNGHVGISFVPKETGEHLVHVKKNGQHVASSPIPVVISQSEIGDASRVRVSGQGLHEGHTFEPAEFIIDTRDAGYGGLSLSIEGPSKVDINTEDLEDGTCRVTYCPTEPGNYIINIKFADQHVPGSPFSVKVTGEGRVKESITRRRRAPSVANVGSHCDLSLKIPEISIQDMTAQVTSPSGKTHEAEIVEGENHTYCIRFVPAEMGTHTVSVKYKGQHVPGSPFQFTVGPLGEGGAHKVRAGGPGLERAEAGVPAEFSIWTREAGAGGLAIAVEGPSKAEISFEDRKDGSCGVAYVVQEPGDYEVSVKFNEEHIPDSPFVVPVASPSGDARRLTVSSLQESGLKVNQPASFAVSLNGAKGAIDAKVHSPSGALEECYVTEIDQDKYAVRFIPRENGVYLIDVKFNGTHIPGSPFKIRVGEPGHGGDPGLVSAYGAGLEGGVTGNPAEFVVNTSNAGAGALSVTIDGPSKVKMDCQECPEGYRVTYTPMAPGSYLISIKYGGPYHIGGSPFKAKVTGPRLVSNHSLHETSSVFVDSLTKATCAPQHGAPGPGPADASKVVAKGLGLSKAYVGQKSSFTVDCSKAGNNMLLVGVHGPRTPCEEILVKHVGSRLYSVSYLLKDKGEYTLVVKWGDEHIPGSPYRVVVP
Description: Postmortem frontal cortex tissues were gradually thawed (from −80° C. to −20° C.) and were sliced using a chilled McIlwain tissue chopper (200 μm×200 μm×3 mm). […] Following two additional washes with 1 ml of ice-cold K-R, brain slices were suspended in 1 ml of K-R.
Incubation continued for 1 hour in the dark to minimize light destruction of the test agents. […] Reaction was terminated by the addition of 1.5 ml of ice-cold Ca^2+-free K-R. Tissue slices were harvested by a brief centrifugation and used as the tissue sources for various assays.

[4] = system: tau (pSerine202, pThreonine231, pThreonine181); assay: LPS-induced tau phosphorylation in postmortem human hippocampal slices; assay type: cell-based; conditions: 1 nM compound, 1 hour
Description: The three phosphoepitopes of tau were detected in immunoprecipitates using specific antibodies using Western blots (WB).
The slices are carefully separated in 10 ml of oxygenated ice-cold dissection medium with two pairs of fine forceps and gentle shaking.
The reaction was terminated by diluting with 1.5 ml of ice-cold 1 mM EDTA-containing Ca^2+-free Kreb's-Ringer and centrifuged for 10 minutes at 15,000×g (4° C.).
After removal of the supernatant, the slices were homogenized to prepare post-mitochondrial (P2) fraction.
The anti-tau immunocomplexes were enriched by incubation with 50 μl of protein A/G-conjugated agarose beads at 4° C. and centrifugation.

T1 sequence (P21333 2-2647, one chain of several): as above

SMILES: CN1CCC2(CC1)NCC(=O)N2Cc1ccccc1 [Compound C0105]
- FLNA associations with α7nAChR and TLR4 in lymphocytes [1]: significantly reduced
- Aβ42-induced IL-6 production (IL-6, TNF-α and IL-1β; 10 mg/kg twice daily): completely abolished
- Suppression of IL-1β level (IL-6, TNF-α and IL-1β; 10 mg/kg twice daily): 80%
- Suppression of TNF-α level (IL-6, TNF-α and IL-1β; 10 mg/kg twice daily): 86%
- Decrease of levels of IL-6, TNF-α and IL-1 (IL-6, TNF-α and IL-1β; mice receiving C0105): 80-100%
- Aβ42-induced tau phosphorylation at S202, T231 and T181 ([2]; 1 or 10 nM compound, simultaneously or 10-minute pretreatment, Aβ42 0.1 μM): reduced this phosphorylation at both concentrations
- Aβ42-induced phosphorylation of tau ([2]; simultaneous administration): reduced tau phosphorylation with simultaneous administration
- Amyloid deposits (IHC, FCX and HP) (NFT and Aβ42 aggregates): prevents
- NFT formation (IHC, FCX and HP) (NFT and Aβ42 aggregates): prevents
- IC50 (FLNA): 0.226 nM
- Aβ42-induced tau phosphorylation [3]: inhibits tau phosphorylation
- Aβ42-induced reduction in calcium influx after PNU282987 (α7nAChR): normalized
- FLNA association with TLR4 (TLR4-FLNA complex): reduces Aβ42-induced FLNA association with α7nAChR and TLR4
- LPS-induced tau phosphorylation [4]: reduces LPS-induced tau phosphorylation
